Measured values from patent publication US20250263404A1, “AMINOPYRIDINES AS ACTIVATORS OF PI3 KINASE” (UCL Business Ltd, priority 2021, published 2025).

Key:
[1] = Solubility (comparison in words); type: physicochemical
PI3Kα [2] = molecular target: T1, PI3Kα (Homo sapiens, UniProt P42336); test: ADP-Glo in vitro lipid kinase assay, PI3Kα; type: biochemical; design: Full-length p110α was expressed in a complex with full-length p85α (for biochemistry and HDX-MS); 6xHis followed by TEV protease site (N); made in house; host or cells: Spodoptera frugiperda Sf9 (baculovirus co-infection; plasmids OP831 and OP809); settings: for Max. activity relative to pY ctrl: relative to pY control; for EC50: in vitro PI3Kα activation
T1 sequence (P42336 whole entry, the tested form may be a part): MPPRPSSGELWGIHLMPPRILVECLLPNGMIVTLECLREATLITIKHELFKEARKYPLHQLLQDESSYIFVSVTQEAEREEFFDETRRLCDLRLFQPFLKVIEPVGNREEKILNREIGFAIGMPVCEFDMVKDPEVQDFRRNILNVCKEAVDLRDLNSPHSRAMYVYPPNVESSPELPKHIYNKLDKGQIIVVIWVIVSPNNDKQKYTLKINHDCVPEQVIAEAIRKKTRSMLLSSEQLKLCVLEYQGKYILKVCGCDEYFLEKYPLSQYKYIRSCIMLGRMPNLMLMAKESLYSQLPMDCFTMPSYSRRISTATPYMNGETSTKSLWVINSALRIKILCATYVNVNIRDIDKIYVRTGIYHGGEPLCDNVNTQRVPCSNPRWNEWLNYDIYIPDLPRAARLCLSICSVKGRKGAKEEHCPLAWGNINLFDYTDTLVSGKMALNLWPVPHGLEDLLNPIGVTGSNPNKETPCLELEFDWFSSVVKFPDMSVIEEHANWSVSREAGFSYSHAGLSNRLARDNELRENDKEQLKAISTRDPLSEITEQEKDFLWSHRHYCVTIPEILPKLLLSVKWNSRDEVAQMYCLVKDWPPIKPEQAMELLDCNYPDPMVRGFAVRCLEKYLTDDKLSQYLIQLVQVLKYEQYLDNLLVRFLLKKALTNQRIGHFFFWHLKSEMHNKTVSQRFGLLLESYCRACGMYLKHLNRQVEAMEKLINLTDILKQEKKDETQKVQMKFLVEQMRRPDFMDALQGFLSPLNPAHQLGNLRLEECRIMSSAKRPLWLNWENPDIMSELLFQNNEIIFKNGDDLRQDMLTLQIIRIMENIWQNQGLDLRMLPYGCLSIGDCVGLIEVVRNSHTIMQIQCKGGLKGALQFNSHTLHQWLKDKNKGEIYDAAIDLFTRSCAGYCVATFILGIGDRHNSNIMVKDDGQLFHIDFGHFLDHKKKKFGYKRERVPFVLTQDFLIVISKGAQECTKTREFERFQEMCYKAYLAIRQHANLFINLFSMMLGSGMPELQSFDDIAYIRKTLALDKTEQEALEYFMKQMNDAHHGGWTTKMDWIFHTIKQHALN
T1 sequence (P27986 whole entry partner, the tested form may be a part): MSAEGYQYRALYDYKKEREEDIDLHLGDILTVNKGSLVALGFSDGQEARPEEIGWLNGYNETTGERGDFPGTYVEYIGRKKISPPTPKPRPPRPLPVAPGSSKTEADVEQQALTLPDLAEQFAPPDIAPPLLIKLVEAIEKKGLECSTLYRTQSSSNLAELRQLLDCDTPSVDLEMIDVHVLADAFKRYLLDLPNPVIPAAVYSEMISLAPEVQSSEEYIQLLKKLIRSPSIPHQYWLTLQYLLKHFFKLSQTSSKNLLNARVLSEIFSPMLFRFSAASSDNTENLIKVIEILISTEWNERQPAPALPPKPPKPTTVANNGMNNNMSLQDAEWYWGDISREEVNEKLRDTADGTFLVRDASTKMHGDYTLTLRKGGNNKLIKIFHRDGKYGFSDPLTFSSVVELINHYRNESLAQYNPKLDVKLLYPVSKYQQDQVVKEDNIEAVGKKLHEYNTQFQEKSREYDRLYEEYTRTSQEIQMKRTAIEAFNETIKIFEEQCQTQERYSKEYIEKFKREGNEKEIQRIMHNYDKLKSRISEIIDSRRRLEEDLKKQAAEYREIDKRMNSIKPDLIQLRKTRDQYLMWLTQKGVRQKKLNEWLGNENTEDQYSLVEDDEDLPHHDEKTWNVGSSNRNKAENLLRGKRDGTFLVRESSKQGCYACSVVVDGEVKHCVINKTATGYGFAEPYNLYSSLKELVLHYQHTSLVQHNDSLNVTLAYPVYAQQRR
Procedure: The effect of 1938 on the in vitro lipid kinase activity of p85α in complex with p110α, p110β or p110δ (further referred to as PI3Kα, PI3Kβ and PI3Kδ) was tested. As a positive control, a bis-phosphorylated phosphopeptide (a PDGF-receptor-derived peptide phosphorylated on Tyr-740 and Tyr-751, hereafter referred to as pY peptide) was used to mimic engagement of the p85α SH2 domains with tyrosine-phosphorylated peptides in membrane-bound receptors and adaptor proteins, known to activate the PI3Kα complex.
Kinase reactions were performed with ADP-Glo kinase assay kit (Promega Corporation). The enzyme, substrate and compounds were diluted in reaction buffer (20 mM HEPES, 50 mM NaCl, 50 mM KCl, 3 mM MgCl2, 1 mM EGTA, 1 mM TCEP, pH 7.4). Final concentrations of PI3Kα and PI3Kδ used were 25 nM and 50 nM for PI3Kβ. Liposomes (5% brain PI(4,5)P2, 20% brain phosphatidylserine, 45% brain phosphatidylethanolamine, 15% brain phosphatidylcholine, 10% cholesterol, 5% sphingomyelin (Avanti Polar Lipids)) were used at a final concentration of 1 mg/ml.
For compound profiling, the reaction mixture contained 2 μl PI3K enzyme, 2 μl compound and/or pY and 2 μl of liposome substrate mixed with ATP. ATP was used at a final concentration of 500 μM for PI3Kα and PI3Kβ and at 200 μM for PI3Kδ, unless otherwise stated. The final DMSO concentration in the assay was 1%. The experiments were performed at room temperature for 3 h using 384 white-polystyrene plates (Corning #3824) before addition of 6 μl of ADP-Glo R1 to terminate the reaction. The plate was incubated for 45 min, followed by addition of 12 μl of ADP-Glo R2 and incubated further for 60 min in the dark. Luminescence was read using a Sense (Hidex) plate reader. […] All analyses were performed using GraphPad Prism 7.
For characterisation of the effects of 1938 on in vitro PI3K enzymology, all reactions were performed at room temperature with 384 white-polystyrene plates (Corning #3574). The final DMSO concentration in the assay was between 0.5%-1.8%. The reaction mixture contained 2 μl PI3K enzyme, 2 μl compound and/or pY and 2 μl of liposome substrate mixed with ATP. ATP was used at a final concentration of 200 μM, unless otherwise stated. The enzyme and compounds were pre-incubated for 10 min prior to addition of substrate. The reaction was allowed to proceed for 45 min at room temperature, before addition of 6 μl of ADP-Glo R1 to terminate the reaction. The plate was incubated for 60 min, followed by addition of 12 μl of ADP-Glo R2 and incubated further for 60 min in the dark. For enzyme kinetic calculations, data was expressed as velocity (pmol of ADP generated/sec). ADP-ATP standard curves were performed according to the manufacturer's instructions, and all analyses were performed using GraphPad Prism 8.

PI3Kα [3] = molecular target: T1, PI3Kα; test: pAKT S473 ELISA in A549 cells (PI3Kα activation); type: cell-based; design: endogenous in cells; host or cells: A549; settings: for EC50: A549 cells, 15 min treatment, pAKT S473 ELISA, normalised to Emax of 1 μM insulin, read-out: Av EC50; for Emax at 10 µM: A549, 0.25 h, read-out: <50% response at 10 μM
Procedure: EC50 values were determined by quantifying phosphorylation on S473 residues of Akt in A549 human adenocarcinoma cells by ELISA (enzyme linked immunoadsorbent assay, R&D Systems, DYC887BE). A549 cells were seeded into 96-well plates (50,000 cells/well) in DMEM supplemented with 10% foetal bovine serum and 1% penicillin-streptomyocin. Following 24 h in culture cells were starved for 24 h in serum-free DMEM before 15 minute treatment with a concentration response curve of compounds. Experimental compounds were diluted in DMSO into […] 1:3 concentration response curves in polypropylene V-bottom plates (SLS MIC9050). Concentration response curves were diluted to a 3× stock in serum-free DMEM. Standard 8-point concentration response curves were performed at 50, 16.7, 5.6, 1.9, 0.6, 0.2, 0.07, 0.02 μM and serum-free DMEM containing 0.5% DMSO was used as a negative control. […] A549 cells were seeded at 50,000 cells per well in 96-well plates in DMEM (10% FBS+1% P/S). The next day cells were washed once with PBS before addition of serum-free DMEM for 24 h. On the day of treatment cells, were incubated in fresh serum-free DMEM prior to treatment. Compounds solubilised to 10 mM in DMSO were diluted 1:3 in an 8-point concentration response curve in DMSO. Concentration response curves were diluted in serum-free DMEM by transfer into intermediate plates using a BRAVO liquid handler (Agilent). Intermediate plates were then used to treat cell plates using the BRAVO liquid handler. Compound concentration response curves had atop concentration of 50 μM and a final well concentration of 0.5% DMSO. Cell plates were treated for 15 min at 37° C., 5% CO2 before being washed with ice-cold PBS and lysed in lysis buffer 6 (R&D Systems #895561) and freezing at −80° C. Levels of pAKT-S473 were determined using the phospho-AKT (S473) pan-specific Duoset IC ELISA (R&D Systems #DYC887BE) in 96-well white high-binding plates (Corning #3922) according to manufacturer's instructions. Endpoint luminescence was measured using a Sense (Hidex) platereader. […] Data were transformed and EC50 data were determined by variable slope (4 parameters) non-linear regression using Prism 7 (Graphpad).

## CC(=O)N1CCc2cccc(Nc3ccnc(Nc4ccccc4)c3)c21 [Example 2016]
[1]
  solubility compared with 1938 (in words): less soluble than 1938
PI3Kα [2]
  Max. activity relative to 1938: 9%
  Max. activity relative to pY ctrl: 36 ± 8%
PI3Kα [2]; structure-activity comparison with 1938
  reduction in activity: more than 90%

## CCN1CCN(c2ccc(Nc3nccc(Nc4cccc5c4N(C(C)=O)CC5)n3)cc2)CC1 [Example 2152]
PI3Kα [2]
  Max. activity relative to 1938: 4%
  Max. activity relative to pY ctrl: 16 ± 8%

## COc1cc(N2CCN(C)CC2)ccc1Nc1cc(Nc2cccc3c2N(C(C)=O)CC3)ccn1 [Example 1889]
PI3Kα [2]
  activity compared with 1938 (in words): activities comparable with 1938
  EC50: 56 ± 24 µM
  Max. activity relative to 1938: 102%
  Max. activity relative to pY ctrl: 408 ± 110%

## CCN1CCN(c2ccc(Nc3cc(Nc4ccncn4)ccn3)cc2)CC1 [Example 2106]
PI3Kα [2]
  Max. activity relative to 1938: 4%
  Max. activity relative to pY ctrl: 14 ± 13%

## COc1cc(Nc2cc(Nc3cccc4c3N(C(C)=O)CC4)ccn2)cc(OC)c1OC [Example 1887]
PI3Kα [2]
  activity compared with 1938 (in words): activities comparable with 1938
  EC50: 36 ± 5 µM
  Max. activity relative to 1938: 80%
  Max. activity relative to pY ctrl: 318 ± 68%

## CC(=O)N1CCc2cccc(Nc3ccnc(Nc4cccc(NS(C)(=O)=O)c4)c3)c21 [101 (2358)]
PI3Kα [3]
  EC50: > 50 µM

## CNC(=O)c1ccc(Nc2cc(Nc3cccc4c3N(C(C)=O)CC4)ccn2)c(OC)c1 [93 (2349)]
PI3Kα [3]
  EC50: 5.18 µM

## CCN1CCN(c2ccc(Nc3cc(Nc4cccc5c4N(C(C)=O)CC5)ccn3)cc2)CC1 [12 (1938)]
PI3Kα [3]
  EC50: 1.53 µM

## COc1cc(N2CCN(C)CC2)ccc1Nc1cc(Nc2ncccc2C#N)ccn1 [67 (2066)]
PI3Kα [3]
  Emax at 10 µM: < 50%
  EC50: > 50 µM

## CC(=O)N1CCc2cccc(Nc3ccnc(Nc4ccc(C(C)(C)C)cc4)c3)c21 [40 (2017)]
PI3Kα [3]
  Emax at 10 µM: < 50%
  EC50: 7.4 µM

## CNC(=O)c1ccc(Nc2cc(Nc3cccc4c3N(C(C)=O)CC4)ccn2)cc1 [42 (2019)]
PI3Kα [3]
  EC50: 1.37 µM

## COc1cc(N2CCN(C)CC2)ccc1Nc1cc(Nc2cccc(-c3ccccn3)c2)ccn1 [59 (2052)]
PI3Kα [3]
  Emax at 10 µM: < 50%
  EC50: 0.55 µM

## COc1cc(N2CCN(C)CC2)ccc1Nc1cc(Nc2cccc3c2N(C(C)=O)CC3)c(F)cn1 [R2 (1890)]
PI3Kα [3]
  EC50: 1.62 µM

## COc1cc(N2CCOCC2)ccc1Nc1cc(Nc2cccc3c2N(C(C)=O)CC3)ccn1 [7 (1912)]
PI3Kα [3]
  Emax at 10 µM: < 50%
  EC50: 0.54 µM

## COc1cc(N2CCN(C)CC2)ccc1Nc1cc(Nc2cccc3c2N(C(=O)C(C)C)CC3)ccn1 [15 (1943)]
PI3Kα [3]
  EC50: 2.39 µM

## COc1cc(N2CCN(C)CC2)ccc1Nc1cc(Nc2ccncn2)ccn1 [53 (2039)]
PI3Kα [3]
  EC50: 7.85 µM

## CC(=O)N1CCc2cccc(Nc3ccnc(Nc4ccc5ncccc5c4)c3)c21 [49 (2028)]
PI3Kα [3]
  Emax at 10 µM: < 50%
  EC50: 0.44 µM

## CNC(=O)c1ccc(Nc2cc(Nc3cc(C(C)(C)C)nn3C)ccn2)cc1 [89 (2116)]
PI3Kα [3]
  Emax at 10 µM: < 50%
  EC50: > 50 µM

## COc1cc(N2CCN(C)CC2)ccc1Nc1cc(Nc2cccc(NS(C)(=O)=O)c2)ccn1 [60 (2054)]
PI3Kα [3]
  EC50: 2.51 µM

## CC(=O)N1CCc2cc(Nc3cc(Nc4cccc5c4N(C(C)=O)CC5)ccn3)ccc21 [72 (2072)]
PI3Kα [3]
  EC50: 1.08 µM

## COc1cc(C#N)ccc1Nc1cc(Nc2cccc3c2N(C(C)=O)CC3)ccn1 [100 (2357)]
PI3Kα [3]
  EC50: > 50 µM

## CCN1CCN(c2ccc(Nc3cc(Nc4ccc(C(=O)NC)cc4)ccn3)cc2)CC1 [79 (2105)]
PI3Kα [3]
  EC50: 8.31 µM

## CCN1CCN(c2ccc(Nc3cc(Nc4cccc(-n5ccnc5)c4)ccn3)cc2)CC1 [81 (2107)]
PI3Kα [3]
  EC50: 5.33 µM

## COc1cc(Nc2cc(Nc3ccccc3)ccn2)cc(OC)c1OC [1 (1902)]
PI3Kα [3]
  EC50: ≥ 50 µM
